Drawing on BindingDB's records for doi:10.1016/j.ejmech.2016.05.049 (University of Naples Federico Ii, 2016), this text covers Ki for two molecules.

The nature of the assay: Competitive inhibition of post-glutamyl peptide hydrolyzing activity of human 20S proteasome using Cbz-Leu-Leu-Glu-AMC as substrate measured for 10 mins by fluorescence assay.

Residues, ends and D or L forms follow the SMILES beside them. *: point of attachment. Cbz = O=C(OCc1ccccc1)*

Usually Ki stands for a measure of affinity in units of concentration, obtained from inhibition or displacement. Consider `CC(C)CC(NC(=O)C(CO)NC(=O)OCc1ccccc1)C(=O)NC(Cc1ccc(O)cc1)C(N)=O` (stereo not drawn) (Cbz-Ser-Leu-Tyr-NH2; configuration not given here), for which the Ki was 8.59 µM. `COC(=O)[C@H](Cc1ccc(O)cc1)NC(=O)[C@H](CC(C)C)NC(=O)[C@H](CO)NC(=O)OCc1ccccc1` (Cbz-Ser-Leu-Tyr-OMe) returned a Ki of 31.3 µM.
